Laboratory results reported in patent US11786839B2, “Eutectic extract formation and purification” (Givaudan France Naturals SAS, priority 2018, dated 2023).

Columns and labels:
[1] = Conjugated autoxidizable triene (CAT) assay; format: biochemical
Protocol: Antioxidant solutions were prepared as follows: a methanol solution of eutectic extract or Trolox (reference) was prepared at the desired concentration. […] Various volumes of this solution (25, 50, 75, and 100 μL) were then added to 24.9 mL of phosphate buffer solution (PBS), pH 7.2, and then filled to 25.0 mL with pure methanol (75, 50, 25, and 0 μL, respectively). In this way, all buffered solutions of eutectic extract contained the same methanol volume (100 μL), which minimizes any possible bias among samples. Samples of these solutions (50 μL/well) were transferred using a multichannel micropipet into UV-Star 96-well microplate (Greiner, Frickenhausen, Germany) (absorbance at 273 nm=0.03). The microplate was then prewarmed and stirred in a thermostated shaker (PHMT Grant Instruments, […], England) at 37° C. for 5 min at 1,200 rpm. […] Each well was then filled with 100 μL of this tung oil-in-PBS emulsion. To improve repeatability, the microplate was then immediately pre-warmed and shaken, sheltered from light, in a thermostated shaker (PHMT Grant Instruments) at 37° C. for 1 min at 1,200 rpm. Fifty microliters of a freshly prepared AAPH solution in PBS (4 mM) was added with a multi-channel micropipet. […] The progress of reactions was immediately monitored by recording the decrease in absorbance at 273 nm. […] Each experiment was performed in triplicate (three wells), and results were expressed as the mean of CAT value (see below) ±SD. Similarly, to the ORAC assay, the antioxidant value of a sample was calculated through the difference between the area under the curve of this sample and that of the blank (without eutectic extract). The result of this operation gave the net area under the curve (AUC) which was then plotted on a graph as a function of the concentration. Only the linear part of the curve was taken into account to calculate the slope which was then divided by the slope of the Trolox (standard) calculated in the same conditions and analyzed on the same microplate. As such, CAT values were expressed as μmol Trolox equivalent/g eutectic extract.

[2] = Oxygen radical absorbance capacity (ORAC) method
Protocol: Test of Physico-Chemical Efficacy as Antioxidant—Oxygen Radical Absorbance Capacity (ORAC) Method
Phosphate buffer solutions (pH 7.2) containing the desired concentrations of eutectic extracts were prepared. Fifty millilitres of each solution were transferred by multi-channel pipette into a Fluotrac 96-well microplate (Greiner).
To improve the repeatability, the microplate was pre-heated at 37° C. under orbital stirring at 1,200 rpm in a temperature-controlled thermoshaker (PHMT series, Grant Instruments Ltd, Shepreth, England) for 20 minutes.
50 μL of AAPH solution in freshly prepared phosphate buffer solution was then added using a multi-channel pipette.
A drop in fluorescence to 515 nm (λex: 490 nm) was immediately recorded. Measurements were then taken every minute for 2 hours at 37±0.1° C. with 5 seconds of stirring before each measurement using a microplate reader.

[3] = Table 1, fresh rosemary eutectic extracts
[4] = Table 2, dried rosemary powder eutectic extracts

| SMILES | CAT value [1, 3] | CAT value [1, 4] | ORAC value [2, 3] | ORAC value [2, 4] | ORAC method result in words ([2]; pure substance) |
| --- | --- | --- | --- | --- | --- |
| CC[N+](CC)(CC)Cc1ccccc1.[Cl-] [BTEAC alone, benzyltriethyl ammonium chloride] | 0.7 μmol TE/g | 0.7 μmol TE/g | 2.8 μmol TE/g | 2.8 μmol TE/g |  |
| CCCCn1cc[n+](C)c1.[Cl-] [BmimCl alone, 1-butyl-3-methylimidazolium chloride] |  | 0.24 μmol TE/g |  | 1.1 μmol TE/g |  |
| C[N+](C)(C)CCO.[Cl-] [ChCl alone, choline chloride] | 0 μmol TE/g | 0 μmol TE/g | 0.3 μmol TE/g | 0.3 μmol TE/g |  |
| CCCCCCCC/C=C\CCCCCCCC(=O)O [oleic acid] |  |  |  |  | positive value, although a modest one |
